Test results reported in the supplement of paper PMC10627819.

Columns and labels:
[1] = test system: B. subtilis 168; experiment: Bliss interaction score (quartile over a dose matrix) (fitness difference); higher = more antagonism (negative = synergy)
Procedure, shortened: (§1)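 OD595 was read at entry into stationary phase and expressed relative to the robust mean of the no-drug wells on the same plate, capped at 1. The resulting ratio is the fitness value. The Bliss score, observed fitness minus product-based expected fitness with single-drug fitness inferred from combinations, is summarised by quartiles over technical, biological and donor/recipient replicates.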

[2] = test system: S. aureus Newman; experiment: as above
Procedure, shortened: as §1

[3] = test system: S. pneumoniae D39V; experiment: as above
Procedure, shortened: as §1

[4] = test system: S. aureus DSM 20231; experiment: as above
Procedure, shortened: as §1

[5] = test system: S. aureus Newman; experiment: fitness (endpoint OD595 vs no drug) (fraction); higher = more growth
Procedure, shortened: (§2)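 Bacterial growth was followed in 384-well plates seeded at OD595 0.01, with 30 µl per well, or 55 µl for S. pneumoniae, in TSB, LB Lennox or CY at 37 °C. OD595 was read every 30 min for 14 h, and each reading had the first reading subtracted as background. Fitness is the background-corrected optical density at entry into stationary phase divided by the robust mean of the no-drug control wells. This ratio is capped at 1.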

[6] = test system: S. pneumoniae D39V; experiment: as above
Procedure, shortened: as §2

[7] = test system: S. aureus DSM 20231; experiment: as above
Procedure, shortened: as §2
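Wherever Bliss interaction score (quartile over a dose matrix) is given: first quartile when negative (synergy) and third quartile when positive (antagonism).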

CC1(C)S[C@@H]2[C@H](NC(=O)[C@H](N)c3ccc(O)cc3)C(=O)N2[C@H]1C(=O)O [Amoxicillin] + CN1C2=CC=CC=C2N=C3C1=CC=CC3=O [Pyocyanin]
Conditions	Bliss interaction score
[1]	-0.0439
[2]	0.0587
[3]	0.0791
[4]	0.0915

Conditions	fitness
[5], first compound 0.0625 µg/mL, partner 1.25 µg/mL	0.829
[5], first compound 0.0625 µg/mL, partner 2.5 µg/mL	0.71
[5], first compound 0.0625 µg/mL, partner 5 µg/mL	0.486
[5], first compound 0.125 µg/mL, partner 2.5 µg/mL	0.767
[5], first compound 0.125 µg/mL, partner 5 µg/mL	0.374
[6], first compound 0.0008 µg/mL, partner 0.325 µg/mL	0.992
[6], first compound 0.0008 µg/mL, partner 0.65 µg/mL	0.987
[6], first compound 0.0015 µg/mL, partner 0.325 µg/mL	≥ 1
[6], first compound 0.0015 µg/mL, partner 0.65 µg/mL	0.978
[6], first compound 0.0015 µg/mL, partner 1.3 µg/mL	0.935
[6], first compound 0.003 µg/mL, partner 0.325 µg/mL	≥ 1
[6], first compound 0.003 µg/mL, partner 0.65 µg/mL	0.974
[6], first compound 0.003 µg/mL, partner 1.3 µg/mL	0.945
[7], first compound 0.0625 µg/mL, partner 1.25 µg/mL	0.673
[7], first compound 0.0625 µg/mL, partner 2.5 µg/mL	0.635
[7], first compound 0.0625 µg/mL, partner 5 µg/mL	0.435
[7], first compound 0.125 µg/mL, partner 1.25 µg/mL	0.418
[7], first compound 0.125 µg/mL, partner 2.5 µg/mL	0.417
[7], first compound 0.125 µg/mL, partner 5 µg/mL	0.254
[7], first compound 0.25 µg/mL, partner 1.25 µg/mL	0.216
[7], first compound 0.25 µg/mL, partner 2.5 µg/mL	0.195
[7], first compound 0.25 µg/mL, partner 5 µg/mL	0.121

one replicate
Conditions	fitness
[6], first compound 0.0008 µg/mL, partner 1.3 µg/mL	0.907
[6], first compound 0.006 µg/mL, partner 0.325 µg/mL	0.624
[6], first compound 0.006 µg/mL, partner 0.65 µg/mL	0.63
[6], first compound 0.006 µg/mL, partner 1.3 µg/mL	0.734
[7], first compound 0.5 µg/mL, partner 1.25 µg/mL	0.0229
[7], first compound 0.5 µg/mL, partner 2.5 µg/mL	0.0134
[7], first compound 0.5 µg/mL, partner 5 µg/mL	0.0115

CO/N=C(\C(=O)N[C@@H]1C(=O)N2C(C(=O)[O-])=C(C[N+]3(C)CCCC3)CS[C@H]12)c1csc(N)n1 [Cefepime] + Cc1onc(-c2ccccc2)c1C(=O)N[C@@H]1C(=O)N2[C@@H]1SC(C)(C)[C@@H]2C(=O)O [Oxacillin]
Conditions	Bliss interaction score
[1]	-0.0609
[2]	0.11
[3]	-0.138
[4]	-0.054

Conditions	fitness
[5], first compound 0.125 µg/mL, partner 0.0156 µg/mL	0.828
[5], first compound 0.125 µg/mL, partner 0.0312 µg/mL	0.796
[5], first compound 0.125 µg/mL, partner 0.0625 µg/mL	0.71
[5], first compound 0.25 µg/mL, partner 0.0156 µg/mL	0.804
[5], first compound 0.25 µg/mL, partner 0.0312 µg/mL	0.753
[5], first compound 0.25 µg/mL, partner 0.0625 µg/mL	0.682
[5], first compound 0.5 µg/mL, partner 0.0156 µg/mL	0.768
[5], first compound 0.5 µg/mL, partner 0.0312 µg/mL	0.684
[5], first compound 0.5 µg/mL, partner 0.0625 µg/mL	0.667
[6], first compound 0.007 µg/mL, partner 0.005 µg/mL	0.997
[6], first compound 0.007 µg/mL, partner 0.01 µg/mL	≥ 1
[6], first compound 0.007 µg/mL, partner 0.02 µg/mL	0.986
[6], first compound 0.0078 µg/mL, partner 0.01 µg/mL	0.95
[6], first compound 0.0078 µg/mL, partner 0.02 µg/mL	0.825
[6], first compound 0.0078 µg/mL, partner 0.04 µg/mL	0.254
[6], first compound 0.014 µg/mL, partner 0.005 µg/mL	≥ 1
[6], first compound 0.014 µg/mL, partner 0.01 µg/mL	≥ 1
[6], first compound 0.014 µg/mL, partner 0.02 µg/mL	1
[6], first compound 0.0155 µg/mL, partner 0.01 µg/mL	0.86
[6], first compound 0.0155 µg/mL, partner 0.04 µg/mL	0.153
[6], first compound 0.028 µg/mL, partner 0.005 µg/mL	0.955
[6], first compound 0.028 µg/mL, partner 0.01 µg/mL	0.942
[6], first compound 0.028 µg/mL, partner 0.02 µg/mL	0.847
[6], first compound 0.031 µg/mL, partner 0.04 µg/mL	0.0453
[7], first compound 0.125 µg/mL, partner 0.0156 µg/mL	0.75
[7], first compound 0.125 µg/mL, partner 0.0312 µg/mL	0.641
[7], first compound 0.125 µg/mL, partner 0.0625 µg/mL	0.507
[7], first compound 0.25 µg/mL, partner 0.0156 µg/mL	0.826
[7], first compound 0.25 µg/mL, partner 0.0312 µg/mL	0.634
[7], first compound 0.25 µg/mL, partner 0.0625 µg/mL	0.578
[7], first compound 0.5 µg/mL, partner 0.0156 µg/mL	0.624
[7], first compound 0.5 µg/mL, partner 0.0312 µg/mL	0.565
[7], first compound 0.5 µg/mL, partner 0.0625 µg/mL	0.53

CO/N=C(\C(=O)N[C@@H]1C(=O)N2C(C(=O)[O-])=C(C[N+]3(C)CCCC3)CS[C@H]12)c1csc(N)n1 [Cefepime] + CCN(CC)CCOC(=O)c1ccc(N)cc1 [Procaine]
Conditions	Bliss interaction score
[1]	0.0389
[2]	-0.0735
[3]	0.0421
[4]	-0.0573

fitness
Conditions	first compound 0.007 µg/mL	first compound 0.014 µg/mL	first compound 0.028 µg/mL	first compound 0.125 µg/mL	first compound 0.25 µg/mL	first compound 0.5 µg/mL
[5], partner 85.5 µg/mL	–	–	–	0.913	0.855	0.801
[5], partner 171 µg/mL	–	–	–	0.879	0.874	0.699
[5], partner 342 µg/mL	–	–	–	0.906	0.833	0.77
[6], partner 85.5 µg/mL	≥ 1	≥ 1	0.974	–	–	–
[6], partner 171 µg/mL	≥ 1	≥ 1	0.948	–	–	–
[6], partner 342 µg/mL	≥ 1	0.999	0.955	–	–	–
[7], partner 171 µg/mL	–	–	–	0.95	0.896	0.921

fitness, [6], one replicate
Conditions	first compound 0.0078 µg/mL	first compound 0.0155 µg/mL	first compound 0.031 µg/mL
partner 85.5 µg/mL	≥ 1	0.943	0.244
partner 171 µg/mL	≥ 1	≥ 1	0.481
partner 342 µg/mL	≥ 1	≥ 1	0.635

CC1(C)S[C@@H]2[C@H](NC(=O)[C@H](N)c3ccc(O)cc3)C(=O)N2[C@H]1C(=O)O [Amoxicillin] + COc1ccc(C[C@H](N)C(=O)N[C@H]2[C@@H](O)[C@H](n3cnc4c(N(C)C)ncnc43)O[C@@H]2CO)cc1 [Puromycin]
Conditions	Bliss interaction score
[1]	0.0627
[2]	0.0595
[3]	0.277
[4]	0.0606

Conditions	fitness
[5], first compound 0.0625 µg/mL, partner 0.39 µg/mL	0.874
[5], first compound 0.0625 µg/mL, partner 0.78 µg/mL	0.879
[5], first compound 0.0625 µg/mL, partner 1.56 µg/mL	0.9
[5], first compound 0.125 µg/mL, partner 0.39 µg/mL	0.904
[5], first compound 0.125 µg/mL, partner 0.78 µg/mL	0.882
[5], first compound 0.125 µg/mL, partner 1.56 µg/mL	0.899
[5], first compound 0.25 µg/mL, partner 0.39 µg/mL	0.813
[6], first compound 0.0008 µg/mL, partner 1 µg/mL	0.965
[6], first compound 0.0008 µg/mL, partner 2 µg/mL	0.953
[6], first compound 0.0008 µg/mL, partner 4 µg/mL	0.88
[6], first compound 0.0015 µg/mL, partner 1 µg/mL	≥ 1
[6], first compound 0.0015 µg/mL, partner 2 µg/mL	≥ 1
[6], first compound 0.0015 µg/mL, partner 4 µg/mL	0.954
[6], first compound 0.003 µg/mL, partner 1 µg/mL	≥ 1
[6], first compound 0.003 µg/mL, partner 2 µg/mL	0.962
[6], first compound 0.003 µg/mL, partner 4 µg/mL	0.891
[7], first compound 0.0625 µg/mL, partner 0.39 µg/mL	0.53
[7], first compound 0.0625 µg/mL, partner 0.78 µg/mL	0.566
[7], first compound 0.0625 µg/mL, partner 1.56 µg/mL	0.517
[7], first compound 0.125 µg/mL, partner 0.39 µg/mL	0.397
[7], first compound 0.125 µg/mL, partner 0.78 µg/mL	0.448
[7], first compound 0.25 µg/mL, partner 0.39 µg/mL	0.199
[7], first compound 0.25 µg/mL, partner 0.78 µg/mL	0.133
[7], first compound 0.25 µg/mL, partner 1.56 µg/mL	0.0396

one replicate
Conditions	fitness
[6], first compound 0.006 µg/mL, partner 1 µg/mL	0.617
[6], first compound 0.006 µg/mL, partner 2 µg/mL	0.685
[6], first compound 0.006 µg/mL, partner 4 µg/mL	0.612
[7], first compound 0.0625 µg/mL, partner 3.12 µg/mL	0.58
[7], first compound 0.0625 µg/mL, partner 6.24 µg/mL	0.293
[7], first compound 0.125 µg/mL, partner 3.12 µg/mL	0.417
[7], first compound 0.125 µg/mL, partner 6.24 µg/mL	0.0695
[7], first compound 0.25 µg/mL, partner 3.12 µg/mL	0.0126
[7], first compound 0.25 µg/mL, partner 6.24 µg/mL	0.0079
[7], first compound 0.5 µg/mL, partner 0.39 µg/mL	0.0239
[7], first compound 0.5 µg/mL, partner 0.78 µg/mL	0.0124
[7], first compound 0.5 µg/mL, partner 1.56 µg/mL	0.0417
